These results are taken from patent US5028614A, “Hydroxymethyl-indolizidines and quinolizidines and their use as α-glucosidase I inhibitors” (Merrell Dow Pharmaceuticals Inc., priority 1990, dated 1991).

Molecules are shown by their SMILES. Structures can show the parent of a compound that is named as a salt.

In the assay the target is α-glucosidase I. Put plainly: Microtiter plate assay for α-glucosidase I activity. The note with it: [3H]G3M9N substrate, purified α-glucosidase I, pH 6.8, 37° C., one hour. In kind it is biochemical. How it is done: The [^3 H] glucose labeled oligosaccharides substrate (G3 M9 N) for glucosidase I was prepared by metabolically labeling exponentially growing BHK cells with [^3 H]galactose in the presence of 200μg/ml of castanospermine. BHK cells grown as monolayer were treated with 200μg/ml of castanospermine in DMEM (#430-1600) supplemented with 10% heat inactivated fetal calf serum, 2 mM L-glutamine and 1X of PSN antibiotic mixture. After three hour incubation with castanospermine, [1-^3 H] galactose (10μci/ml of media) was added to label the glycoproteins and cells were allowed to grow to confluency for an additional 48 hours. At the end of labeling period, the cells were washed with cold PBS and scraped with a rubber policeman. Cell pellet was heated for 10 minutes at 100° C. and exhaustively treated with pronase (usually 72 hrs) in 50 mM Tris pH 7.5 containing 10 mM CaCl2 and 1% Pronase under toluene atmosphere to obtain glycopeptides. The glycopeptides were separated on columns of Bio-gel P-4. The glycopeptides peak produced by castanospermine treatment was pooled, treated with Endo-H to release the oligosaccharides. The oligosaccharides obtained by endo-H hydrolysis were bound to a ConA column previously washed with buffer A (50 mM Tris pH 7.5 containing 500 mM NaCl) and equilibrated with buffer B (5 mM Sodium acetate buffer pH 5.5 containing 2 mM of each CaCl2, MgCl2 and MnCl2). The oligosaccharides were then eluted with buffer B containing 100 mM α-methylmannoside. The oligosaccharides eluted from ConA column were further purified and characterized on a calibrated Biogel P-4 column (1.5×200 cm, (-) 400 mesh). The purified oligosaccharides having GLc3 Man9 GlcNAc structure were used as substrate in these studies. […]
ConA-sepharose was washed first with buffer A, then with buffer B as described above, and resuspended in buffer B (gel: buffer, 1:1) before use. […] A 150 μl aliquot of supernatant was removed and counted.

In the case of `OC[C@@H]1[C@@H](O)[C@H](O)[C@@H](O)[C@H]2CCCN21` [Compound VII], the half-inhibitory concentration (IC50) turned out to be 300 nM. With `OC[C@@H]1[C@@H](O)[C@H](O)[C@@H](O)[C@H]2[C@@H](O)CCCN21` [Compound XXI, [1S-(1α,2β,3α,4β,9α,9aβ)]-octahydro-4-(hydroxy-methyl) -2H-quinolizine-1,2,3,9-tetrol hydrochloride] the figure was 150 nM; with `O=C(O[C@H]1CCCN2[C@H]1[C@H](O)[C@@H](O)[C@H](O)[C@H]2CO)c1ccccc1` [XVII, [1S-(1α,2β,3α,4β,9α,9aβ) ]-octahydro-4-(hydroxymethyl)-2H-quinolizine-1,2,3,9-tetrol 9-benzoate], 29000 nM.
